Measurements as given in ChEMBL document CHEMBL1649421, “New drug-like hydroxyphenylnaphthol steroidomimetics as potent and selective 17β-hydroxysteroid dehydrogenase type 1 inhibitors for the treatment of estrogen-dependent diseases” (J Med Chem, 2011).

Legend:
[1] = target: T1, 17-beta-hydroxysteroid dehydrogenase type 1 (Homo sapiens) (UniProt P14061); experiment: Inhibition of [3H]E1 binding to human placental 17beta-HSD1 at 100 nM after 10 mins by fluid scintillation counting
T1 sequence (whole entry): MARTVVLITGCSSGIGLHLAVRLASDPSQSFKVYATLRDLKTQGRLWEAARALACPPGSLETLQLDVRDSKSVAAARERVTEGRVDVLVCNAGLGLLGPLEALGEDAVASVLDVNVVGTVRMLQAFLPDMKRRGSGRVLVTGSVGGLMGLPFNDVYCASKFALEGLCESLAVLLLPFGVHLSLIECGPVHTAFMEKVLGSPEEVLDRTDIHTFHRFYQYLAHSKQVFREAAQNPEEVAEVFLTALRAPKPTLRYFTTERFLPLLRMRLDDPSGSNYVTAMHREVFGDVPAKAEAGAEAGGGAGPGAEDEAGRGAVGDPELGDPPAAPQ

[2] = target: T1, 17-beta-hydroxysteroid dehydrogenase type 1 (Homo sapiens); experiment: Inhibition of [3H]E1 binding to human placental 17beta-HSD1 at 1 uM after 10 mins by fluid scintillation counting
[3] = target: T2, 17-beta-hydroxysteroid dehydrogenase type 2 (Homo sapiens) (UniProt P37059); experiment: Inhibition of [3H]E2 binding to human placental 17beta-HSD2 at 1 uM after 10 mins by fluid scintillation counting
T2 sequence (whole entry): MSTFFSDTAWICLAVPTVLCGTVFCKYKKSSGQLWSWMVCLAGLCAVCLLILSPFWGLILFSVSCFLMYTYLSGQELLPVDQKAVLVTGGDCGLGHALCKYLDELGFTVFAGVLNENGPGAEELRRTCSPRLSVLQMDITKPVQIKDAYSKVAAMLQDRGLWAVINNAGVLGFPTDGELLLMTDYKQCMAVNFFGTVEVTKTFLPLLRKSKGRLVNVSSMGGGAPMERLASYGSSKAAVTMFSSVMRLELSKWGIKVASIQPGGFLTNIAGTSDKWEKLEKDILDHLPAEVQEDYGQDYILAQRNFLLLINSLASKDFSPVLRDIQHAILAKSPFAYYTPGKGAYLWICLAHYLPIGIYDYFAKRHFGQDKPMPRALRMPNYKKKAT

[4] = target: T2, 17-beta-hydroxysteroid dehydrogenase type 2 (Homo sapiens); experiment: Inhibition of [3H]E2 binding to human recombinant 17beta-HSD2 expressed in baculovirus-infected Sf9 cells at 100 nM after 10 mins by fluid scintillation counting
[5] = target: T2, 17-beta-hydroxysteroid dehydrogenase type 2 (Homo sapiens); experiment: Inhibition of [3H]E2 binding to human recombinant 17beta-HSD2 expressed in baculovirus-infected Sf9 cells at 1 uM after 10 mins by fluid scintillation counting
[6] = organism: Homo sapiens; experiment: Selectivity ratio of IC50 for human placental 17beta-HSD2 to IC50 for human placental 17beta-HSD1
[7] = target: T3, 17-beta-hydroxysteroid dehydrogenase type 1 (Homo sapiens, UniProt P14061); experiment: Displacement of [3H]E1 from 17beta-HSD1 in human T47D cells after 10 mins by fluid scintillation counting; assay type: cell-based
T3 sequence (P14061 whole entry): T1 sequence (whole entry)

[8] = target: T4, Estrogen receptor (Homo sapiens) (UniProt P03372); experiment: Displacement of [3H]E2 from human recombinant ERalpha by liquid scintillation counting relative to estradiol
T4 sequence (whole entry): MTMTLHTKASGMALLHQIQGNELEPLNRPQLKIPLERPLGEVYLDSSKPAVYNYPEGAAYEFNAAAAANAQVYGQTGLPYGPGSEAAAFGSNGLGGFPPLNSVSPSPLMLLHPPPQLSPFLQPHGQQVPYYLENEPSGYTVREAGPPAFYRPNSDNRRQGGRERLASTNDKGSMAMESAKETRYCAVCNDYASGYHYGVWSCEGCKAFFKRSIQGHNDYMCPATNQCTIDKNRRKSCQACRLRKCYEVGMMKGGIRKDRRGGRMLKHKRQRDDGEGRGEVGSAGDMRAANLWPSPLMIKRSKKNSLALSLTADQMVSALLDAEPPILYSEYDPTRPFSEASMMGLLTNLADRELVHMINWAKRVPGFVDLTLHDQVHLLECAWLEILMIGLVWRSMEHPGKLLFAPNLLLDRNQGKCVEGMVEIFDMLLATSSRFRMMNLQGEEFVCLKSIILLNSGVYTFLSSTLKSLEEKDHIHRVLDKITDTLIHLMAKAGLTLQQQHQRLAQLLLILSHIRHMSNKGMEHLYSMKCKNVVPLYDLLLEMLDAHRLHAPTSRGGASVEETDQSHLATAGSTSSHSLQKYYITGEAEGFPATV

[9] = target: Estrogen receptor beta (Homo sapiens) (UniProt Q92731); experiment: Displacement of [3H]E2 from human recombinant ERbeta by liquid scintillation counting relative to estradiol
Estrogen receptor beta (Homo sapiens), sequence (Q92731 whole entry): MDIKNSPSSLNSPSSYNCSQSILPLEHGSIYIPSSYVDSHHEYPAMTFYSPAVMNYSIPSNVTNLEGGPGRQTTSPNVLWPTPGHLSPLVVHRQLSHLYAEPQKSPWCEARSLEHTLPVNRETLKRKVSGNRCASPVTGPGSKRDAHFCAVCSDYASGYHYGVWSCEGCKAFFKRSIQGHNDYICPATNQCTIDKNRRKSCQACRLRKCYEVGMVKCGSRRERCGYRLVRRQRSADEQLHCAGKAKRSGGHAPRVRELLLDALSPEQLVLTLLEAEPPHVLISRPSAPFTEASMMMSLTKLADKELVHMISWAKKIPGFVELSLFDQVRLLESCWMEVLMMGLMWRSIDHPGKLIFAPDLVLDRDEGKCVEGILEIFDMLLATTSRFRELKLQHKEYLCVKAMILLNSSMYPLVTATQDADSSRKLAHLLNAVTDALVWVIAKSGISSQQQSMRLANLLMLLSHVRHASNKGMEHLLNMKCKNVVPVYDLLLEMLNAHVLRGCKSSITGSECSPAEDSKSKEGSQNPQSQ

[10] = Apparent permeability across human Caco2 cells after 180 mins by LC-MS/MS analysis; assay type: ADME, cell-based; conditions: Caco-2
[11] = target: T5, Cytochrome P450 1A2 (Homo sapiens, UniProt P05177); experiment: Inhibition of human CYP1A2; assay type: ADME
T5 sequence (P05177 whole entry): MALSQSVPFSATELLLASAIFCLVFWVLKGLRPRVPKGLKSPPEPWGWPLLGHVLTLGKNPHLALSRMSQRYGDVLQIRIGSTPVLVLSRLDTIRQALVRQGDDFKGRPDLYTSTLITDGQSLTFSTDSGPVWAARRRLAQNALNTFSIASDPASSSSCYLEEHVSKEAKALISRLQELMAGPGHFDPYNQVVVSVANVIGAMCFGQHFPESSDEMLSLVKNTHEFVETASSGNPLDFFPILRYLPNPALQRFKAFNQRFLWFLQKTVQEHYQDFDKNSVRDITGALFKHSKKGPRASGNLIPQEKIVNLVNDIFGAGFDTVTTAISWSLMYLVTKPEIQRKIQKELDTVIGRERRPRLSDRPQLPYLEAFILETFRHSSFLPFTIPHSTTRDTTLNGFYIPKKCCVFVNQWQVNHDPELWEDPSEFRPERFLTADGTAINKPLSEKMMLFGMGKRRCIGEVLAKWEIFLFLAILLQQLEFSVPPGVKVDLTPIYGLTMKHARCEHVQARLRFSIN

[12] = target: T6, Cytochrome P450 2B6 (Homo sapiens, UniProt P20813); experiment: Inhibition of human CYP2B6; assay type: ADME
T6 sequence (P20813 whole entry): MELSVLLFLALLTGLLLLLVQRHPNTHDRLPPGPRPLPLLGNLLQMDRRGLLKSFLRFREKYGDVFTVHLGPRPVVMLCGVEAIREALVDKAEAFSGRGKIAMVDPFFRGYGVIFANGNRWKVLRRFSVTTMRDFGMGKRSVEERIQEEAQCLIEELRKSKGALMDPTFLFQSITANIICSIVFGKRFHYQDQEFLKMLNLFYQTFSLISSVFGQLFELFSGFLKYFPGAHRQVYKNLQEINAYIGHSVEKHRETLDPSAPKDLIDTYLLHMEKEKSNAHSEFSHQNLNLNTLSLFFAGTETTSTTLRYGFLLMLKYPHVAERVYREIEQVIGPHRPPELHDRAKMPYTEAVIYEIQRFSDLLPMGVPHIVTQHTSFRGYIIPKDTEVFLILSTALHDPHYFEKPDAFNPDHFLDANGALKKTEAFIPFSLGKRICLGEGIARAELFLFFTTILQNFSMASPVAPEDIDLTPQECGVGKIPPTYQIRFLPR

[13] = target: Cytochrome P450 2C9 (Homo sapiens, UniProt P11712); experiment: Inhibition of human CYP2C9; assay type: ADME
Cytochrome P450 2C9, sequence (P11712 whole entry): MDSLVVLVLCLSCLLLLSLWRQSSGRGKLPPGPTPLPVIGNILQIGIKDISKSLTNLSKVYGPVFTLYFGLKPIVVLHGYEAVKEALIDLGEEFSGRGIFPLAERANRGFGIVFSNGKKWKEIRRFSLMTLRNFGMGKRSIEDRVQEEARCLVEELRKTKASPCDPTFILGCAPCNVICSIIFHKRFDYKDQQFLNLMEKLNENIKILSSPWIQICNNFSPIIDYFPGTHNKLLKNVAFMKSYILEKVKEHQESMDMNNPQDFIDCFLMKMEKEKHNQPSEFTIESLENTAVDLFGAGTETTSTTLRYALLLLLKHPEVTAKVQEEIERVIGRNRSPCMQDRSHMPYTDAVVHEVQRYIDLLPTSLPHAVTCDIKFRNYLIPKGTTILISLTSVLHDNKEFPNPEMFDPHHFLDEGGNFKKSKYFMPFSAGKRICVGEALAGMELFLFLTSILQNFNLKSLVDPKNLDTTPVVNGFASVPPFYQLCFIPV

[14] = target: Cytochrome P450 2C19 (Homo sapiens, UniProt P33261); experiment: Inhibition of human CYP2C19; assay type: ADME
Cytochrome P450 2C19, sequence (P33261 whole entry): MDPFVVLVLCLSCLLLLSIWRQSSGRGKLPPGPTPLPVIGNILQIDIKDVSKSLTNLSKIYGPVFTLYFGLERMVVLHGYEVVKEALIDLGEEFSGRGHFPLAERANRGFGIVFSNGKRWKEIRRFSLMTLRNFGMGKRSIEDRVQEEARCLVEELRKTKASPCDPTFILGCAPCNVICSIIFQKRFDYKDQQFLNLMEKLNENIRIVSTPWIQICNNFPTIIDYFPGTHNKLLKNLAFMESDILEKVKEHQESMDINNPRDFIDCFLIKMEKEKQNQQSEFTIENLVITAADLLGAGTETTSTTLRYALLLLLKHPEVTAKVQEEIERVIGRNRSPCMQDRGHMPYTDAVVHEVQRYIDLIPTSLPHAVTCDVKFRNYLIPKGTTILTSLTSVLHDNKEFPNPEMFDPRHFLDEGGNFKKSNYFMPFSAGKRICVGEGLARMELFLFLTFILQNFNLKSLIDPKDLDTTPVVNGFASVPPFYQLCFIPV

[15] = target: Cytochrome P450 2D6 (Homo sapiens, UniProt P10635); experiment: Inhibition of human CYP2D6; assay type: ADME
Cytochrome P450 2D6, sequence (P10635 whole entry): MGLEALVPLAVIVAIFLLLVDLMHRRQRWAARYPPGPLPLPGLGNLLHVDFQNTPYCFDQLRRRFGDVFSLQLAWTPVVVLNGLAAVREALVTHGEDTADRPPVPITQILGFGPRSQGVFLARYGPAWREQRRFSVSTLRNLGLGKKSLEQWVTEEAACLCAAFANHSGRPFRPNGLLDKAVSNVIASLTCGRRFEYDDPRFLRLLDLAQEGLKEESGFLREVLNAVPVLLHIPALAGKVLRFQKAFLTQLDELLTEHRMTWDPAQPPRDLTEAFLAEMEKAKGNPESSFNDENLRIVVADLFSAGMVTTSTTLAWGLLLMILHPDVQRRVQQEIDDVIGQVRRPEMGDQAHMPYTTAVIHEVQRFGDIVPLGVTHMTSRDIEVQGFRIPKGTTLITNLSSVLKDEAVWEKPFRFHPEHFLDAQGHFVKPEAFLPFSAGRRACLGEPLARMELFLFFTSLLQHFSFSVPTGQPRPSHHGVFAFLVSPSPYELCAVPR

[16] = target: Cytochrome P450 3A4 (Homo sapiens, UniProt P08684); experiment: Inhibition of human CYP3A4; assay type: ADME
Cytochrome P450 3A4, sequence (P08684 whole entry): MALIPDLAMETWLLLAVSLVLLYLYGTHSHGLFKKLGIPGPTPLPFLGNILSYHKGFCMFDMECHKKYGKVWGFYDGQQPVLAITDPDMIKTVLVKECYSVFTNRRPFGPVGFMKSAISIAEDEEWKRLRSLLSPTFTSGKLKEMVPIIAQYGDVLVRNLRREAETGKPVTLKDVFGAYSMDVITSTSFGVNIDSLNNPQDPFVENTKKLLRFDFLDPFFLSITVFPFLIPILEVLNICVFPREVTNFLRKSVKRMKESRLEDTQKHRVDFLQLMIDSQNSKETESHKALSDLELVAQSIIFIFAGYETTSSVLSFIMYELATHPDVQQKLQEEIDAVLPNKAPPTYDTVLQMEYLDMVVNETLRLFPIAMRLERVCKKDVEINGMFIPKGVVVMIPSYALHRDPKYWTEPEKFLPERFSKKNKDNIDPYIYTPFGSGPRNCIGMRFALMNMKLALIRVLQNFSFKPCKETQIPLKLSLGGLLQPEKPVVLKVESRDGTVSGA

[17] = target: T1, 17-beta-hydroxysteroid dehydrogenase type 1 (Homo sapiens); experiment: Inhibition of [3H]E1 binding to human recombinant 17beta-HSD1 expressed in baculovirus-infected Sf9 cells at 100 nM after 10 mins by fluid scintillation counting
[18] = target: T1, 17-beta-hydroxysteroid dehydrogenase type 1 (Homo sapiens); experiment: Inhibition of [3H]E1 binding to human recombinant 17beta-HSD1 expressed in baculovirus-infected Sf9 cells at 1 uM after 10 mins by fluid scintillation counting
[19] = target: T3, 17-beta-hydroxysteroid dehydrogenase type 1; experiment: Displacement of [3H]E1 from human placental 17beta-HSD1 after 10 mins by fluid scintillation counting
[20] = target: T7, 17-beta-hydroxysteroid dehydrogenase type 2 (Homo sapiens, UniProt P37059); experiment: Displacement of [3H]E2 from human placental 17beta-HSD2 after 10 mins by fluid scintillation counting
T7 sequence (P37059 whole entry): T2 sequence (whole entry)

[21] = Half life in Sprague-Dawley rat liver microsomes by LC-MS/MS analysis; assay type: ADME, Microsome

SMILES | inhibition [2] | inhibition [3] | inhibition [4] | inhibition [5] | RBA [8] | RBA [9] | inhibition [17] | inhibition [18] | further results
Oc1cccc(-c2ccc3c(-c4cncnc4)c(O)ccc3c2)c1 | 41% | 85% | – | – | – | – | – | – | inhibition [1]: < 10%
Oc1cccc(-c2ccc3c(-c4ccc5[nH]ccc5c4)c(O)ccc3c2)c1 | 87% | 19% | – | – | – | – | – | – | inhibition [1]: 50%
Oc1cccc(-c2ccc3c(-c4ccccc4)c(O)ccc3c2)c1 | – | – | 22% | 77% | 0.01% | 0.01% | – | – | Ratio IC50 [6]: 27; IC50 [7]: 281 nM; Papp at 3 h [10]: 9.3 ×10⁻⁶ cm/s; IC50 [11]: 7160 nM; IC50 [12]: 7960 nM; IC50 [13]: 1640 nM; IC50 [14]: 1410 nM; IC50 [15]: 15500 nM; IC50 [16]: 2770 nM
Oc1cccc(-c2ccc3c(-c4cccc(O)c4)c(O)ccc3c2)c1 | – | – | < 10% | 40% | 0.01% | 0.01% | 83% | 93% | IC50 [19]: 36 nM; Ratio IC50 [6]: 27; IC50 [7]: 115 nM; IC50 [11]: 19000 nM; IC50 [12]: 11800 nM; IC50 [13]: 270 nM; IC50 [14]: 6030 nM; IC50 [15]: 24800 nM; IC50 [16]: 40 nM
Oc1cccc(-c2ccc3cc(O)ccc3c2)c1 | – | – | – | – | 0.1% | 0.1% | – | – | Ratio IC50 [6]: 49; IC50 [7]: 229 nM
Oc1cccc(-c2ccc3c(-c4ccncc4)c(O)ccc3c2)c1 | – | – | 12% | 49% | 0.01% | < 0.01% | 74% | 86% | IC50 [19]: 64 nM
Oc1cccc(-c2ccc3c(-c4cncnc4)cccc3c2)c1 | < 10% | < 10% | – | – | – | – | – | – | –
O=C(O)CCC(=O)Nc1cccc(-c2c(O)ccc3cc(-c4cccc(O)c4)ccc23)c1 | – | – | 24% | 68% | – | – | < 10% | 62% | –
Oc1ccc2cc(-c3ccccc3)ccc2c1-c1cncnc1 | 22% | < 10% | – | – | – | – | – | – | –
Oc1cccc(-c2ccc3c(-c4ccc(N5CCOCC5)cc4)c(O)ccc3c2)c1 | – | – | 12% | 32% | – | – | 32% | 65% | –
CC(=O)Nc1cccc(-c2c(O)ccc3cc(-c4cccc(O)c4)ccc23)c1 | – | – | 24% | 64% | – | – | 35% | 82% | –
Oc1ccccc1-c1ccc2c(-c3cncnc3)c(O)ccc2c1 | < 10% | < 10% | – | – | – | – | – | – | –
Cn1cc(-c2c(O)ccc3cc(-c4cccc(O)c4)ccc23)cn1 | 71% | 24% | – | – | – | – | – | – | inhibition [1]: 28%
Oc1ccc(-c2ccc3c(-c4cncnc4)c(O)ccc3c2)cc1 | 35% | 22% | – | – | – | – | – | – | –
Oc1ccccc1-c1ccc2c(-c3cncnc3)cccc2c1 | < 10% | < 10% | – | – | – | – | – | – | –
COc1ncc(-c2c(O)ccc3cc(-c4cccc(O)c4)ccc23)c(OC)n1 | 79% | 9% | – | – | – | – | – | – | inhibition [1]: 31%
O=C(O)c1cccc(-c2c(O)ccc3cc(-c4cccc(O)c4)ccc23)c1 | – | – | < 10% | 34% | – | – | 45% | 80% | –
Oc1cccc(-c2ccc3c(-c4ccoc4)c(O)ccc3c2)c1 | – | – | 61% | 92% | 0.01% | 0.01% | 83% | 89% | IC50 [19]: 70 nM; Ratio IC50 [6]: 8
COc1ccc(-c2c(O)ccc3cc(-c4cccc(O)c4)ccc23)cn1 | – | – | 24% | 67% | 0.01% | < 0.01% | 86% | 89% | IC50 [20]: 530 nM; half-life [21]: 4.82 h; Papp at 3 h [10]: 8 ×10⁻⁶ cm/s
